# Measurements: patent US6911446B2, “Methods of modulating serine/threonine protein kinase function with quinazoline-based compounds” (Sugen, Inc., priority 1997, dated 2005)
# pIC50: −log10 of the molar value. Where “and” joins values, the source holds several entries; their conditions need not be identical. Equal entries are not always repeated.
# What was measured:
# [1] = target: T1, RAF-1 (Homo sapiens, UniProt P04049); assay: RAF-1 ELISA phosphorylation assay (RAF-catalyzed phosphorylation of MEK and MAPK); format: biochemical; settings: RAF-1 phosphorylation assay, lysates from RAS/RAF infected Sf9 cells, substrates T-MEK and His-MAPK
# T1 construct: made in house; host or cells: Sf9 (Spodoptera frugiperda) cells co-infected with RAS and RAF recombinant baculoviruses
# Text: The following assay reports the amount of RAF-catalyzed phosphorylation of its target protein MEK as well as MEK's target MAPK. The RAF gene sequence is described in Bonner et al., 1985, Molec. Cell. Biol. 5: 1400-1407, and is readily accessible in multiple gene sequence data banks. Construction of the nucleic acid vector and cell lines utilized for this portion of the invention are fully described in Morrison et al., 1988, Proc. Natl. Acad. Sci. USA 85: 8855-8859.
# • 1. Sf9 (Spodoptera frugiperda) cells; GIBCO-BRL, Gaithersburg, Md. • 2. RIPA buffer: 20 mM Tris/HCl pH 7.4, 137 mM NaCl, 10% glycerol, 1 mM PMSF, 5 mg/L Aprotenin, 0.5% Triton X-100; • 3. Thioredoxin-MEK fusion protein (T-MEK): T-MEK expression and purification by affinity chromatography were performed according to the manufacturer's procedures. Catalog#K 350-01 and R 350-40, Invitrogen Corp., San Diego, Calif. • 4. His-MAPK (ERK 2); His-tagged MAPK was expressed in XL1 Blue cells transformed with pUC18 vector encoding His-MAPK. His-MAPK was purified by Ni-affinity chromatography. Cat#27-4949-01, Pharmacia, Alameda, Calif., as described herein. • 5. Sheep anti mouse IgG: Jackson laboratories, West Grove, Pa. Catalog, #515-006-008, Lot#28563 • 6. RAF-1 protein kinase specific antibody: URP2653 from UBI. • 7. Coating buffer: PBS; phosphate buffered saline, GIBCO-BRL, Gaithersburg, Md. • 8. Wash buffer: TBST-50 mM Tris/HCL pH 7.2, 150 mM NaCl, 0.1% Triton X-100 • 9. Block buffer: TBST, 0.1% ethanolamine pH 7.4 • 10. DMSO, Sigma, St. Louis, Mo. • 11. Kinase buffer (KB): 20 mM Hepes/HC1 pH 7.2, 150 mM NaCl, 0.1% Triton X-100, 1 mM PMSF, 5 mg/L Aprotenin, 75 μM sodium ortho vanadate, 0.5 MM DTT and 10 mM MgCl2. • 12. ATP mix: 100 mM MgCl2, 300 μM ATP, 10 μCi γ-^33P ATP (Dupont-NEN)/mL. • 13 Stop solution: 1% phosphoric acid; Fisher, Pittsburgh, Pa. • 14. Wallac Cellulose Phosphate Filter mats; Wallac, Turku, Finnland. • 15. Filter wash solution: 1% phosphoric acid, Fisher, Pittsburgh, Pa. • 16. Tomtec plate harvester, Wallac, Turku, Finnland. • 17. Wallac beta plate reader #1205, Wallac, Turku, Finnland. • 18. NUNC 96-well V bottom polypropylene plates for compounds Applied Scientific Catalog #AS-72092. Procedure
# All of the following steps were conducted at room temperature unless specifically indicated. • 1. ELISA plate coating: ELISA wells are coated with 100 μL of Sheep anti mouse affinity purified antiserum (1 μg/100 μL coating buffer) over night at 4° C. ELISA plates can be used for two weeks when stored at 4° C. • 2. Invert the plate and remove liquid. Add 100 μL of blocking solution and incubate for 30 min. • 3. Remove blocking solution and wash four times with wash buffer. Pat the plate on a paper towel to remove excess liquid. • 4. Add 1 μg of antibody specific for RAF-1 to each well and incubate for 1 hour. Wash as described in step 3. • 5. Thaw lysates from RAS/RAF infected Sf9 cells and dilute with TBST to 10 μg/100 μL. Add 10 μg of diluted lysate to the wells and incubate for 1 hour. Shake the plate during incubation. Negative controls receive no lysate. Lysates from RAS/RAF infected Sf9 insect cells are prepared after cells are infected with recombinant baculoviruses at a MOI of 5 for each virus, and harvested 48 hours later. The cells are washed once with PBS and lysed in RIPA buffer. Insoluble material is removed by centrifugation (5 min at 10,000×g). Aliquots of lysates are frozen in dry ice/ethanol and stored at −80° C. until use. • 6. Remove non-bound material and wash as outlined above (step 3). • 7. Add 2 μg of T-MEK and 2 μg of His-MAEPK per well and adjust the volume to 40 μL with kinase buffer. Methods for purifying T-MEK and MAPK from cell extracts are provided herein by example. • 8. Predilute compounds (stock solution 10 mg/mL DMSO) or extracts 20 fold in TBST plus 1% DMSO. Add 5 μL of the prediluted compounds/extracts to the wells described in step 6. Incubate for 20 min. Controls receive no drug. • 9. […]
# T1 sequence (P04049 whole entry): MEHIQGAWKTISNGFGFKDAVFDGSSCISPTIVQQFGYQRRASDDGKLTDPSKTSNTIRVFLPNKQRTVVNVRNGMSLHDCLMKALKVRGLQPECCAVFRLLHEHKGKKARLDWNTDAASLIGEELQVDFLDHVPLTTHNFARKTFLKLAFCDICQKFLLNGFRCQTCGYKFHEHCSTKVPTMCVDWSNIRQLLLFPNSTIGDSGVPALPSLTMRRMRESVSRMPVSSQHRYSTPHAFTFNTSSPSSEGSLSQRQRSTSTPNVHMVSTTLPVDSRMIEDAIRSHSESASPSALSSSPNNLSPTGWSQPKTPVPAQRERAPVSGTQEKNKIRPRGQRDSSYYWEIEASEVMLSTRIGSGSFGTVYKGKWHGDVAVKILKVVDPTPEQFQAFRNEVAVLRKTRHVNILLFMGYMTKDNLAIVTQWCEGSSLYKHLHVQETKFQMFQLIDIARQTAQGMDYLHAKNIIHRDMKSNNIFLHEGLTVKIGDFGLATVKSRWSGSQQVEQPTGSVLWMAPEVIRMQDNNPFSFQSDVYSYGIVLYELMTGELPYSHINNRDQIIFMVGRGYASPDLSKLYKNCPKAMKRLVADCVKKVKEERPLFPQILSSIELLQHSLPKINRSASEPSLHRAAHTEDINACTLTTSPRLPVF
pIC50 [1],melting point,SMILES
6.10,,"COc1ccc(Oc2cccc3ncnc(N)c23)cc1 [Compound A-15, 4-Amino-5-(4-methoxyphenoxy)quinazoline]"
4.61 and 4.24,,"CN(C)c1cccc(Oc2cccc3nc(N)nc(N)c23)c1 [Compound A-14, 2,4-Diamino-5-(3-dimethylaminophenoxy)quinazoline]"
< 4.00,,"Cc1ccc(Sc2cccc3nc(N)nc(N)c23)cc1 [Compound A-4, 2,4-Diamino-5-(4-methylphenylthio)quinazoline]"
7.00,188 to 190 °C,"Nc1ncnc2cccc(Oc3ccc(F)cc3)c12 [Compound A-13, 4-Amino-5-(4-fluorophenoxy)quinazoline]"
< 4.00,190 to 191 °C,"Nc1nc(-c2ccccc2)nc2cccc(Oc3ccccc3)c12 [Compound A-12, 4-Amino-2-phenyl-5-phenoxyquinazoline]"
< 4.00,,"Nc1nc(N)c2c(Sc3ccc(Cl)cc3)cccc2n1 [Compound A-5, 2,4-Diamino-5-(4-chlorophenylthio)quinazoline]"
,279 to 283 °C (dec.),"Nc1nc(N)c2c(Nc3ccccc3)cccc2n1 [Compound A-35, 2,4-Diamino-5-anilinoquinazoline]"
4.59,,"Nc1ncnc2cccc(Sc3ccccc3)c12 [Compound A-3, 4-Amino-5-phenylthioquinazoline]"
< 4.00,,"Nc1nc(N)c2c(Oc3cccc(C(F)(F)F)c3)cccc2n1 [Compound A-11, 2,4-Diamino-5-(3-trifluoromethylphenoxy)quinazoline]"
